In publication PMC7873226, “Molecular mechanism and structural basis of small-molecule modulation of the gating of acid-sensing ion channel 1” (Communications Biology, 2021):
Several values for one entry are separate records, joined by “and”; a condition that tells them apart may be missing. Identical values can stand only once.

Tests used:
Format in all cases: cell-based
[1] = target: T1, rat ASIC1a (Rattus norvegicus, UniProt P55926); assay: pH dependence of channel activation (whole-cell patch clamp); conditions: holding pH 8.2
T1 construct: expressed in transfected cells
T1 sequence (P55926 1-526): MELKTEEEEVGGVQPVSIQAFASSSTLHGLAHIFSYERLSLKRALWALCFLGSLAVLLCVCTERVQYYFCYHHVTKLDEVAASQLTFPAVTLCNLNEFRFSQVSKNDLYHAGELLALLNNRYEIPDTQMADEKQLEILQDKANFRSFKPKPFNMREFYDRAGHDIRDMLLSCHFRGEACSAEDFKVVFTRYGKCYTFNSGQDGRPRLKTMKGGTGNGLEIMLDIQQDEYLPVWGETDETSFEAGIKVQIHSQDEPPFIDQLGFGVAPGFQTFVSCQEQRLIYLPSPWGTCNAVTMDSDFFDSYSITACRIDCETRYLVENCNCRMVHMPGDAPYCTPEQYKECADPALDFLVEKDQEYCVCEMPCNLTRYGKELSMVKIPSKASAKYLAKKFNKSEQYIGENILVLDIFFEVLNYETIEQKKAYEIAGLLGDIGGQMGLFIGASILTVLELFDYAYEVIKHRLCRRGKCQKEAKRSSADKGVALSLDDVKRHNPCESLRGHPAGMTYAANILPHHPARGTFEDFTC
Description: (§1) Chinese Hamster Ovary (CHO) cells stably expressing rat ASIC1a were cultured in Ham’s F12, supplemented with 10% FBS, 1% penicillin–streptomycin and 500 µg/mL G418 and incubated at 37 °C with 5% CO2. Transient transfections of rASIC1a and cASIC1 wild-type or mutant channels in CHO cells were performed with Lipofectamine 3000 (Thermo Fisher Scientific) according to the manufacturer’s recommendations. The green fluorescent protein (GFP) cDNA (at 1/10 the amount of channel cDNA) was co-transfected with channel cDNA to aid the identification of transfected cells under the microscope in patch clamp experiments. All cDNAs were sequence verified.
(§2) Cells were freshly dissociated with CellStripper (Corning) and dispersed in a chamber on the stage of an inverted microscope. Upon formation of the whole-cell conformation, the cell was lifted from the bottom of the chamber and placed at the tip of a tubing perfusing an extracellular solution containing (in mM): 149 NaCl, 2 CaCl2, 4 KCl, 1 MgCl2, 5 glucose, 10 HEPES, pH 7.4, 310 mOsm/L. Extracellular solutions at more basic or acidic pHs were made by titrating the above pH 7.4 solution with NaOH or HCl (5 mM MES was added to solutions at pH 6.0 and lower). Pipette electrodes were filled with an intracellular solution containing (in mM): 135 KCl, 4 MgATP, 0.3 Na2GTP, 10 EGTA, and 20 HEPES, pH 7.2, 290 mOsm/L.
(§3) All recordings were performed at room temperature using an Axopatch 200B amplifier and pClamp 11 software (Molecular Devices). Currents were measured by whole-cell patch clamp, digitized at 10 kHz and lowpass filtered at 2 kHz. Series resistance was 75% compensated. Responses were elicited by rapid perfusion of acidic solutions using the SF-77B Fast-Step Perfusion device (Warner Instruments) for 40 ms once every 30 s (unless indicated otherwise) and recorded till steady state was reached. The holding potential was 0 mV unless indicated otherwise.
(§4) Baseline values (i.e., current amplitudes at the conditioning pH) were subtracted to obtain responses evoked by the test pH. Responses were normalized for each cell before averaging (see figure legends for more detail on normalization for each type of experiment). Concentration–response data were fitted to a logistic function of the form: R = (A1–A2)/(1 + (C/C0)^h)+A2, where R is the normalized response, C is either pH or compound concentration, C0 is the pH/concentration at which half-maximal response occurs (pH50 or IC50), h is the Hill coefficient, and A1 and A2 are constants. Kinetic parameters were obtained by fitting the data with either a single or double exponential function. Fitted data are shown as solid, dashed, or dotted curves.

[2] = target: T1, rat ASIC1a; assay: pH dependence of steady-state desensitization (whole-cell patch clamp)
Description: as §1, §2, §3, §4

[3] = target: T1, rat ASIC1a; assay: Kinetics of closed-state (pH 7.1-induced) desensitization and recovery; conditions: 100 nM
Description: as §1, §2, §3, §4

[4] = target: T2, ASIC2a (Rattus norvegicus, UniProt Q62962); assay: Activity at ASIC2a; conditions: inactive at ASIC2a
T2 sequence (Q62962 1-512): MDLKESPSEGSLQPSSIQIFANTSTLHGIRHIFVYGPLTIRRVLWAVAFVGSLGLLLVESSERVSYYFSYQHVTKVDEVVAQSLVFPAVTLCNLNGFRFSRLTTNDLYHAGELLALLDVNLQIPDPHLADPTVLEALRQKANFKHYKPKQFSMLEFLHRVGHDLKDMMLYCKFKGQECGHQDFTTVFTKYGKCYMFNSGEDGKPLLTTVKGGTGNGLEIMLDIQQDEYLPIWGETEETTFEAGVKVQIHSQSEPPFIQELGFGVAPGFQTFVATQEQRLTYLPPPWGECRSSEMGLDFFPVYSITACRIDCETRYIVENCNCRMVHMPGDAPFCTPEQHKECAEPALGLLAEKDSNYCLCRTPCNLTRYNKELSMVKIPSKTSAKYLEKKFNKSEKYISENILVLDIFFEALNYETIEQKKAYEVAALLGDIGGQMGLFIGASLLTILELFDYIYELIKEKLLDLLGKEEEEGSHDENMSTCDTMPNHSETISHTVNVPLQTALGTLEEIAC

## Cc1cc(N2CC(Oc3cc(F)c4c(N)n[nH]c4c3)C2)c(F)cn1 [JNJ-67869386]
[1]; 10 nM
  max %response of channel activation: 95.3 ± 1.6%
  pH50 of channel activation: 6.02 ± 0.03
[1]; 30 nM
  max %response of channel activation: 88.1 ± 1.0%
  pH50 of channel activation: 5.87 ± 0.02
[1]; 100 nM
  max %response of channel activation: 82.6 ± 0.3%
  pH50 of channel activation: 5.73 ± 0.00
[1]; 300 nM
  max %response of channel activation: 84.1 ± 0.5%
  pH50 of channel activation: 5.70 ± 0.01
[1]; 1000 nM
  max %response of channel activation: 87.4 ± 0.5%
  pH50 of channel activation: 5.68 ± 0.01
[1]; 3000 nM
  max %response of channel activation: 82.9 ± 0.5%
  pH50 of channel activation: 5.70 ± 0.01
[2]; 0.1 µM
  pH50 of steady-state desensitization: 7.30 ± 0.03
[2]; 1 µM
  pH50 of steady-state desensitization: 7.27 ± 0.01
[2]; 10 µM
  pH50 of steady-state desensitization: 7.26 ± 0.01
[2]; conditioning pH 6.8, 100 nM
  steady-state desensitization, current % of conditioning pH 8.2, mean: 0.13%
[2]; conditioning pH 6.8, 1 uM
  steady-state desensitization, current % of conditioning pH 8.2, mean: 0.0205%
[2]; conditioning pH 6.8, 10 uM
  steady-state desensitization, current % of conditioning pH 8.2, mean: -0.0952%
[2]; conditioning pH 7.1, 100 nM
  steady-state desensitization, current % of conditioning pH 8.2, mean: 1.6%
[2]; conditioning pH 7.1, 1 uM
  steady-state desensitization, current % of conditioning pH 8.2, mean: 9.0%
[2]; conditioning pH 7.1, 10 uM
  steady-state desensitization, current % of conditioning pH 8.2, mean: 10.8%
[2]; conditioning pH 7.4, 100 nM
  steady-state desensitization, current % of conditioning pH 8.2, mean: 88.8%
[2]; conditioning pH 7.4, 1 uM
  steady-state desensitization, current % of conditioning pH 8.2, mean: 84.6%
[2]; conditioning pH 7.4, 10 uM
  steady-state desensitization, current % of conditioning pH 8.2, mean: 85.5%
[2]; conditioning pH 7.8, 100 nM
  steady-state desensitization, current % of conditioning pH 8.2, mean: 98.6%
[2]; conditioning pH 7.8, 1 uM
  steady-state desensitization, current % of conditioning pH 8.2, mean: 95.5%
[2]; conditioning pH 7.8, 10 uM
  steady-state desensitization, current % of conditioning pH 8.2, mean: 95.9%
[2]; conditioning pH 8.2, 100 nM
  steady-state desensitization, current % of conditioning pH 8.2, mean: 100%
[2]; conditioning pH 8.2, 1 uM
  steady-state desensitization, current % of conditioning pH 8.2, mean: 100%
[2]; conditioning pH 8.2, 10 uM
  steady-state desensitization, current % of conditioning pH 8.2, mean: 100%
[3]; 0.8 s in pH 7.1 (source data Fig. 3c)
  current remaining during pH 7.1-induced desensitization, normalized to pre-pH 7.1 pH 6.0 peak, mean: 75.8
[3]; 1.6 s in pH 7.1
  current remaining during pH 7.1-induced desensitization, normalized to pre-pH 7.1 pH 6.0 peak, mean: 70.1
[3]; 3.2 s in pH 7.1
  current remaining during pH 7.1-induced desensitization, normalized to pre-pH 7.1 pH 6.0 peak, mean: 61.0
[3]; 6.4 s in pH 7.1
  current remaining during pH 7.1-induced desensitization, normalized to pre-pH 7.1 pH 6.0 peak, mean: 50.5
[3]; 12.8 s in pH 7.1
  current remaining during pH 7.1-induced desensitization, normalized to pre-pH 7.1 pH 6.0 peak, mean: 36.9
[3]; 25.6 s in pH 7.1
  current remaining during pH 7.1-induced desensitization, normalized to pre-pH 7.1 pH 6.0 peak, mean: 20.0
[3]; 51.2 s in pH 7.1
  current remaining during pH 7.1-induced desensitization, normalized to pre-pH 7.1 pH 6.0 peak, mean: 8.7
[3]; 102.4 s in pH 7.1
  current remaining during pH 7.1-induced desensitization, normalized to pre-pH 7.1 pH 6.0 peak, mean: 4.9
[3]; 204.8 s in pH 7.1
  current remaining during pH 7.1-induced desensitization, normalized to pre-pH 7.1 pH 6.0 peak, mean: 3.1
[3]; single exponential, pH 6.0 test pulses
  time constant of development of pH 7.1-induced desensitization: 15.1 s and 15.1 ± 1.3 s
[4]
  IC50: > 50 µM

## COc1ccc(Oc2ccc(-c3nc4cc(C(=N)N)ccc4[nH]3)cc2)cc1OC [JNJ-799760]
[4]
  IC50: > 50 µM
